Experimental data as given in PMC10041525, “New Dual Inhibitors of Bacterial Topoisomerases with Broad-Spectrum Antibacterial Activity and In Vivo Efficacy against Vancomycin-Intermediate Staphylococcus aureus” (Journal of Medicinal Chemistry, 2023).
Read-outs that look alike come from different tables or passages of the source.

Assays:
[1] = tested on: 100 A. baumannii strains (50 MDR, 50 non-MDR); experiment: MIC broth microdilution at IHMA Europe, panel of 100 strains; assay type: cell-based; details: for MIC / MIC50 / MIC90: Acinetobacter baumannii
[2] = tested on: P. aeruginosa ATCC 27853; experiment: IHMA QC MIC; assay type: cell-based
[3] = tested on: A. baumannii ATCC 17978; experiment: IHMA QC MIC; assay type: cell-based; details: Acinetobacter baumannii, ATCC17978, read-out: MIC (QC, repeated tests)
Experimental: (§1) The panel of Hungarian clinical isolates and controls measured following the same method as detailed above, and albeit measurements were carried out in 384-well microtiter plates (Corning Inc.).

[4] = tested on: E. coli ATCC 35218; experiment: IHMA QC MIC; assay type: cell-based; details: Escherichia coli, ATCC35218, read-out: MIC (QC, repeated tests)
Experimental: as §1

[5] = tested on: E. coli ATCC 25922; experiment: IHMA QC MIC; assay type: cell-based
[6] = tested on: E. faecalis ATCC 29212; experiment: IHMA QC MIC; assay type: cell-based
From the text: (§2) Supplement jm2c01905_si_004.xlsx, sheet "QC" | column: MIC [µg/mL]

[7] = tested on: H. influenzae ATCC 49247; experiment: IHMA QC MIC; assay type: cell-based; details: Haemophilus influenzae
From the text: as §2

[8] = tested on: H. influenzae ATCC 49766; experiment: IHMA QC MIC; assay type: cell-based
From the text: as §2

[9] = tested on: S. pneumoniae ATCC 49619; experiment: IHMA QC MIC; assay type: cell-based
From the text: as §2

[10] = tested on: E. coli ATCC 25922; design: method as in earlier work; details: QC range for E. coli ATCC 25922, ref CLSI; cited from earlier work

Compound: C[C@H]1COc2c(N3CCN(C)CC3)c(F)cc3c(=O)c(C(=O)O)cn1c23.C[C@H]1COc2c(N3CCN(C)CC3)c(F)cc3c(=O)c(C(=O)O)cn1c23.O [Levofloxacin, levofloxacin]
- MIC ([1]; A. baumannii IHMA 2183849, Argentina 2020, Non-MDR): ≤ 0.25 µg/mL
- MIC ([1]; A. baumannii IHMA 2184382, Japan 2020, Non-MDR): ≤ 0.25 µg/mL
- MIC ([1]; A. baumannii IHMA 2193375, Venezuela 2020, MDR): 8 µg/mL
- MIC ([1]; A. baumannii IHMA 2193485, Venezuela 2020, Non-MDR): ≤ 0.25 µg/mL
- MIC ([1]; A. baumannii IHMA 2193607, Venezuela 2020, MDR): 8 µg/mL
- MIC ([1]; A. baumannii IHMA 2195460, Italy 2020, MDR): 16 µg/mL
- MIC ([1]; A. baumannii IHMA 2196914, South Africa 2020, MDR): 16 µg/mL
- MIC ([1]; A. baumannii IHMA 2196959, South Africa 2020, MDR): 4 µg/mL
- MIC ([1]; A. baumannii IHMA 2203763, Spain 2020, MDR): > 16 µg/mL
- MIC ([1]; A. baumannii IHMA 2205144, Korea, South 2020, MDR): 16 µg/mL
- MIC ([1]; A. baumannii IHMA 2206459, Taiwan 2020, MDR): 16 µg/mL
- MIC ([1]; A. baumannii IHMA 2206507, Taiwan 2020, Non-MDR): ≤ 0.25 µg/mL
- MIC ([1]; A. baumannii IHMA 2212575, Hungary 2020, Non-MDR): ≤ 0.25 µg/mL
- MIC ([1]; A. baumannii IHMA 2215307, Hong Kong 2020, Non-MDR): ≤ 0.25 µg/mL
- MIC ([1]; A. baumannii IHMA 2216586, Taiwan 2020, MDR): 8 µg/mL
- MIC ([1]; A. baumannii IHMA 2223200, Colombia 2020, Non-MDR): ≤ 0.25 µg/mL
- MIC ([1]; A. baumannii IHMA 2224017, Panama 2020, MDR): 8 µg/mL
- MIC ([1]; A. baumannii IHMA 2224303, Panama 2020, Non-MDR): ≤ 0.25 µg/mL
- MIC ([1]; A. baumannii IHMA 2231797, Greece 2020, MDR): 8 µg/mL
- MIC ([1]; A. baumannii IHMA 2233099, Guatemala 2020, MDR): 8 µg/mL
- MIC ([1]; A. baumannii IHMA 2233430, Kazakhstan 2020, MDR): > 16 µg/mL
- MIC ([1]; A. baumannii IHMA 2233548, Kazakhstan 2020, Non-MDR): ≤ 0.25 µg/mL
- MIC ([1]; A. baumannii IHMA 2238964, Thailand 2020, MDR): 4 µg/mL
- MIC ([1]; A. baumannii IHMA 2239052, Thailand 2020, Non-MDR): ≤ 0.25 µg/mL
- MIC ([1]; A. baumannii IHMA 2261047, Belgium 2020, MDR): 8 µg/mL
- MIC ([1]; A. baumannii IHMA 2261633, Canada 2020, Non-MDR): ≤ 0.25 µg/mL
- MIC ([1]; A. baumannii IHMA 2274234, South Africa 2020, MDR): 8 µg/mL
- MIC ([1]; A. baumannii IHMA 2274364, South Africa 2020, MDR): 16 µg/mL
- MIC ([1]; A. baumannii IHMA 2275237, Chile 2020, Non-MDR): ≤ 0.25 µg/mL
- MIC ([1]; A. baumannii IHMA 2275751, Jordan 2020, MDR): 8 µg/mL
- MIC ([1]; A. baumannii IHMA 2316205, United States 2020, MDR): 16 µg/mL
- MIC50 ([1]; MDR n = 50): 8 µg/mL
- MIC90 ([1]; MDR n = 50): 16 µg/mL
- MIC50 ([1]; all isolates n = 100): 0.5 µg/mL
- MIC90 ([1]; all isolates n = 100): 16 µg/mL
- MIC50 ([1]; non-MDR n = 50): ≤ 0.25 µg/mL
- MIC90 ([1]; non-MDR n = 50): ≤ 0.25 µg/mL
- MIC ([1]; read-out: MAX (maximum MIC), non-MDR n = 50): 0.5 µg/mL
- MIC ([1]; read-out: MAX (maximum MIC; all strains inhibited), MDR n = 50): > 16 µg/mL
- MIC ([1]; read-out: MAX (maximum MIC; all strains inhibited), all isolates n = 100): > 16 µg/mL
- MIC ([1]; read-out: MIN (minimum MIC), MDR n = 50): 4 µg/mL
- MIC ([1]; read-out: MIN (minimum MIC), all isolates n = 100): ≤ 0.25 µg/mL
- MIC ([1]; read-out: MIN (minimum MIC), non-MDR n = 50): ≤ 0.25 µg/mL
- Percentage I ([1]; MDR n = 50): 12%
- Percentage R ([1]; MDR n = 50): 88%
- Percentage S ([1]; MDR n = 50): 0%
- Percentage I ([1]; all n = 100, CLSI breakpoints): 6%
- Percentage R ([1]; all n = 100, CLSI breakpoints): 44%
- Percentage S ([1]; all n = 100, CLSI breakpoints): 50%
- Percentage I ([1]; non-MDR n = 50): 0%
- Percentage R ([1]; non-MDR n = 50): 0%
- Percentage S ([1]; non-MDR n = 50): 100%
- MIC ([2]; Pseudomonas aeruginosa, ATCC27853, QC strain P. aeruginosa ATCC 27853, test date 2021-11-11): 2 µg/mL
- MIC ([2]; Pseudomonas aeruginosa, ATCC27853, QC strain P. aeruginosa ATCC 27853, test date 2021-11-26): 1 µg/mL
- MIC ([2]; QC strain P. aeruginosa ATCC 27853, test date 2021-11-11): 1 µg/mL
- MIC [3]: ≤ 0.25 µg/mL
- MIC [4]: ≤ 0.25 µg/mL
- MIC ([5]; Escherichia coli, ATCC25922): 0.015 µg/mL
- MIC ([5]; Escherichia coli, ATCC25922, read-out: MIC (QC, repeated tests)): ≤ 0.25 µg/mL
- MIC ([5]; QC strain E. coli ATCC 25922, test date 2021-11-26): 0.015 µg/mL
- MIC ([6]; Enterococcus faecalis, ATCC29212): 1 µg/mL
- MIC ([6]; QC strain E. faecalis ATCC 29212, test date 2021-11-26): 1 µg/mL
- MIC ([7]; ATCC49247, QC strain H. influenzae ATCC 49247, test date 2021-11-11): 0.015 µg/mL
- MIC ([7]; ATCC49247, QC strain H. influenzae ATCC 49247, test date 2021-11-26): 0.015 µg/mL
- MIC ([8]; Haemophilus influenzae, ATCC49766): 0.015 µg/mL
- MIC ([8]; QC strain H. influenzae ATCC 49766, test date 2021-11-26): 0.015 µg/mL
- MIC ([9]; QC strain S. pneumoniae ATCC 49619, test date 2021-11-26): 0.5 µg/mL
- MIC ([9]; Streptococcus pneumoniae, ATCC49619): 0.5 µg/mL
- MIC, CLSI Range [10]: 0,008 - 0,06 µg/mL
